# Measurements: ChEMBL document CHEMBL3991601, “The target landscape of clinical kinase drugs” (Science, 2017)
# Active and inactive are the calls of the source.
# Experiments:
# ADP/ATP translocase 3 = molecular target: T1, ADP/ATP translocase 3 (Homo sapiens, UniProt P12236)
# T1 sequence (P12236 whole entry): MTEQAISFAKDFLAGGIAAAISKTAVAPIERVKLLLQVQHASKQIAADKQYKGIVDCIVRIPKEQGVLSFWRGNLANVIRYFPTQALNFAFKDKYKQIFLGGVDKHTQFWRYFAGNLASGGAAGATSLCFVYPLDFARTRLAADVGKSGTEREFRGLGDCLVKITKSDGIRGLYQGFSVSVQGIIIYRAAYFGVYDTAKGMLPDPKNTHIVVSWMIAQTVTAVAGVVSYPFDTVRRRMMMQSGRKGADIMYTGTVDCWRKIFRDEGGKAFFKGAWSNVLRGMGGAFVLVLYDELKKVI
# [1] = molecular target: T2, Peroxisomal acyl-coenzyme A oxidase 3 (Homo sapiens, UniProt O15254)
# T2 sequence (O15254 whole entry): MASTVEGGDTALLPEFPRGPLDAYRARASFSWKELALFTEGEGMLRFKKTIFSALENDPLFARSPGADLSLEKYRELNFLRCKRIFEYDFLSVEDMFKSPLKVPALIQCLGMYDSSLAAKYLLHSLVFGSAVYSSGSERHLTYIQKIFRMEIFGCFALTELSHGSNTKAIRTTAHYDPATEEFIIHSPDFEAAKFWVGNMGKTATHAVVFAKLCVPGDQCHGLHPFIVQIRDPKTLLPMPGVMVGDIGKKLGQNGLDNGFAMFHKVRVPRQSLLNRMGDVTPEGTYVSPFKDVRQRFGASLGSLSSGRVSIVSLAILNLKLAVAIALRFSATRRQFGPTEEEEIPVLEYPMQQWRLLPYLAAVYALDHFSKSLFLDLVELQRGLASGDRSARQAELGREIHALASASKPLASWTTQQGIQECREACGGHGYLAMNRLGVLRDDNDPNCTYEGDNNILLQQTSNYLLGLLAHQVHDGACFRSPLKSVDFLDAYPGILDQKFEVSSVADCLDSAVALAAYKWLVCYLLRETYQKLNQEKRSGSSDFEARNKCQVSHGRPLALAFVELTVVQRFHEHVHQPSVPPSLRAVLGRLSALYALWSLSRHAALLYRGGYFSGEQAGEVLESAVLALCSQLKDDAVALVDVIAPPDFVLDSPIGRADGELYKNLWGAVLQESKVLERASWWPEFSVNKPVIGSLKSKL
# [2] = molecular target: T3, Dual specificity mitogen-activated protein kinase kinase 6 (Homo sapiens, UniProt P52564)
# T3 sequence (P52564 whole entry): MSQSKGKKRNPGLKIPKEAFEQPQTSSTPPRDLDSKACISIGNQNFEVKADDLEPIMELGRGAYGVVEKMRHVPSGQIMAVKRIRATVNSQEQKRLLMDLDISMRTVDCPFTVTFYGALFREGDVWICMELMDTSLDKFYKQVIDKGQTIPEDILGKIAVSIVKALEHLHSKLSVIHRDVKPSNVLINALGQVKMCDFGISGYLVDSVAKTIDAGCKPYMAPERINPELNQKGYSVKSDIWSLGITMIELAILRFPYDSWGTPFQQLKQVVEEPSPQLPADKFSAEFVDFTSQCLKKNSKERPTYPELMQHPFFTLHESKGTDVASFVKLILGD
# [3] = molecular target: T4, Mitogen-activated protein kinase kinase kinase kinase 3 (Homo sapiens, UniProt Q8IVH8)
# T4 sequence (Q8IVH8 whole entry): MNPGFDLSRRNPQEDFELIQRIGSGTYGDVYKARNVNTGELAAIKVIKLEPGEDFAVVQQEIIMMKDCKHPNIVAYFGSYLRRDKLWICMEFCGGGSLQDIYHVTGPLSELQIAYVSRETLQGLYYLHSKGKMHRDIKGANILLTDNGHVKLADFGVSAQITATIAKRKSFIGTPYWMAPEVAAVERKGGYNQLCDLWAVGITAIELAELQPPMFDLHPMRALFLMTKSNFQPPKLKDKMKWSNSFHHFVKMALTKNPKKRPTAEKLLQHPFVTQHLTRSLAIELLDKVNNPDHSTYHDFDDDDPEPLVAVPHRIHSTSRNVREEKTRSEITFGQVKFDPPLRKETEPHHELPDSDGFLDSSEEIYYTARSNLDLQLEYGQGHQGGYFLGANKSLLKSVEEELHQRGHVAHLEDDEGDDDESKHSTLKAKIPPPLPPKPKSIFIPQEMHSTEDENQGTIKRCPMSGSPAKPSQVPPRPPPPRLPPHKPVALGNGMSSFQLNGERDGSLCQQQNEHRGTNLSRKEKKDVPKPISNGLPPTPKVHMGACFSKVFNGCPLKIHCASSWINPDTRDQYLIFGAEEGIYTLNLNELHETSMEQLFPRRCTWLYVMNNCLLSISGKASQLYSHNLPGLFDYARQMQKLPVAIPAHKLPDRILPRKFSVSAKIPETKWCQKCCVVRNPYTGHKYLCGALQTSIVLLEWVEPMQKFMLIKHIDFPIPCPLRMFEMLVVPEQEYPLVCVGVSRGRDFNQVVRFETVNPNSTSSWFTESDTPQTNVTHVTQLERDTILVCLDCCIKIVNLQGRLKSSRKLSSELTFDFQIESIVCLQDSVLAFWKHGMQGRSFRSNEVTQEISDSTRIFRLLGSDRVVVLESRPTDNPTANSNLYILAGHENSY
# DNA topoisomerase 2-beta = DNA topoisomerase 2-beta (Homo sapiens, UniProt Q02880)
# [4] = molecular target: Mitogen-activated protein kinase 10 (Homo sapiens, UniProt P53779)
# [5] = molecular target: Protein kinase C alpha type (Homo sapiens, UniProt P17252)
# [6] = molecular target: T5, Phosphatidylinositol 5-phosphate 4-kinase type-2 alpha (Homo sapiens, UniProt P48426)
# T5 sequence (P48426 whole entry): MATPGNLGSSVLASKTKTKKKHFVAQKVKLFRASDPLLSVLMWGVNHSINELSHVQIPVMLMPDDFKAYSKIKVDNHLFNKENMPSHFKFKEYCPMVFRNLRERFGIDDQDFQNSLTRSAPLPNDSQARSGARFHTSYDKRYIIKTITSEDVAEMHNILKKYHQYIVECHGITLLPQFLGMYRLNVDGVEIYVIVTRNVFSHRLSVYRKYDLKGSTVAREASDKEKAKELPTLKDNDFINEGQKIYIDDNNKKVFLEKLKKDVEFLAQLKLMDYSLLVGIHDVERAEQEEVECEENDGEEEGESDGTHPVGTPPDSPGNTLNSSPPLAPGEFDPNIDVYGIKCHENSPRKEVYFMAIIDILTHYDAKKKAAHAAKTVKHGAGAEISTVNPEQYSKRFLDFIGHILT
# [7] = molecular target: ATP-dependent RNA helicase DDX3X (Homo sapiens, UniProt O00571)
# Also: in the data inactive means no Kd found up to 30 µM.
# Chain of Mitogen-activated protein kinase 10 (P53779 whole entry): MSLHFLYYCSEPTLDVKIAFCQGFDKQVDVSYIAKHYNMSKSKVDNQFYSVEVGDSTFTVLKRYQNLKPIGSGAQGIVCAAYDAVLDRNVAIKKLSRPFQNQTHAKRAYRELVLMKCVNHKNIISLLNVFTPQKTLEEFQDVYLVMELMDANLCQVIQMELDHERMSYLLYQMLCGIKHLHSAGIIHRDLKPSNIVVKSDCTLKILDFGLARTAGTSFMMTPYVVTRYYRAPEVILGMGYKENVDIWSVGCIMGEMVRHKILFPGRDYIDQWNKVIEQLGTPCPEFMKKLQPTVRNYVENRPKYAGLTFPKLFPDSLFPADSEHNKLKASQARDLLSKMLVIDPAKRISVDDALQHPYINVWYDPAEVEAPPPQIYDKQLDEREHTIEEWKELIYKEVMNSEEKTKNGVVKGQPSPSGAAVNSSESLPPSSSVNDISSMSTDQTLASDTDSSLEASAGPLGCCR
# Chain of ATP-dependent RNA helicase DDX3X (O00571 whole entry): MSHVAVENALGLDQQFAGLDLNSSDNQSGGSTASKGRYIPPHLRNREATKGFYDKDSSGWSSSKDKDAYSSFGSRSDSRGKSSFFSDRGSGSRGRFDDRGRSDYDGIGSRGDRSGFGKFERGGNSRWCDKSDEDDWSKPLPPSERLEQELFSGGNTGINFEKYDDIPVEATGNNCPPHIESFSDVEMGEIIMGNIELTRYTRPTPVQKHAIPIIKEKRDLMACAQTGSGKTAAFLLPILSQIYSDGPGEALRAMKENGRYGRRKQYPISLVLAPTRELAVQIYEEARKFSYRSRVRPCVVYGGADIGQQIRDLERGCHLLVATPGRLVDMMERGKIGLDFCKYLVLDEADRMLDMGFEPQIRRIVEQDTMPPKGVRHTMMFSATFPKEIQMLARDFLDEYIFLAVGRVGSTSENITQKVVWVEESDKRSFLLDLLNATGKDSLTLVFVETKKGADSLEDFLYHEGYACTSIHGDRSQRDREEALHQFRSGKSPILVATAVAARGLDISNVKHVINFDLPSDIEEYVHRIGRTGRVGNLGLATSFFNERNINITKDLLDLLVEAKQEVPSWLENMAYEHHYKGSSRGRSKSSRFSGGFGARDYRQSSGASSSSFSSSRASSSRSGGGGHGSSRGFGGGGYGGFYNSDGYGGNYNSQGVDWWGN
# Chain of DNA topoisomerase 2-beta (Q02880 whole entry): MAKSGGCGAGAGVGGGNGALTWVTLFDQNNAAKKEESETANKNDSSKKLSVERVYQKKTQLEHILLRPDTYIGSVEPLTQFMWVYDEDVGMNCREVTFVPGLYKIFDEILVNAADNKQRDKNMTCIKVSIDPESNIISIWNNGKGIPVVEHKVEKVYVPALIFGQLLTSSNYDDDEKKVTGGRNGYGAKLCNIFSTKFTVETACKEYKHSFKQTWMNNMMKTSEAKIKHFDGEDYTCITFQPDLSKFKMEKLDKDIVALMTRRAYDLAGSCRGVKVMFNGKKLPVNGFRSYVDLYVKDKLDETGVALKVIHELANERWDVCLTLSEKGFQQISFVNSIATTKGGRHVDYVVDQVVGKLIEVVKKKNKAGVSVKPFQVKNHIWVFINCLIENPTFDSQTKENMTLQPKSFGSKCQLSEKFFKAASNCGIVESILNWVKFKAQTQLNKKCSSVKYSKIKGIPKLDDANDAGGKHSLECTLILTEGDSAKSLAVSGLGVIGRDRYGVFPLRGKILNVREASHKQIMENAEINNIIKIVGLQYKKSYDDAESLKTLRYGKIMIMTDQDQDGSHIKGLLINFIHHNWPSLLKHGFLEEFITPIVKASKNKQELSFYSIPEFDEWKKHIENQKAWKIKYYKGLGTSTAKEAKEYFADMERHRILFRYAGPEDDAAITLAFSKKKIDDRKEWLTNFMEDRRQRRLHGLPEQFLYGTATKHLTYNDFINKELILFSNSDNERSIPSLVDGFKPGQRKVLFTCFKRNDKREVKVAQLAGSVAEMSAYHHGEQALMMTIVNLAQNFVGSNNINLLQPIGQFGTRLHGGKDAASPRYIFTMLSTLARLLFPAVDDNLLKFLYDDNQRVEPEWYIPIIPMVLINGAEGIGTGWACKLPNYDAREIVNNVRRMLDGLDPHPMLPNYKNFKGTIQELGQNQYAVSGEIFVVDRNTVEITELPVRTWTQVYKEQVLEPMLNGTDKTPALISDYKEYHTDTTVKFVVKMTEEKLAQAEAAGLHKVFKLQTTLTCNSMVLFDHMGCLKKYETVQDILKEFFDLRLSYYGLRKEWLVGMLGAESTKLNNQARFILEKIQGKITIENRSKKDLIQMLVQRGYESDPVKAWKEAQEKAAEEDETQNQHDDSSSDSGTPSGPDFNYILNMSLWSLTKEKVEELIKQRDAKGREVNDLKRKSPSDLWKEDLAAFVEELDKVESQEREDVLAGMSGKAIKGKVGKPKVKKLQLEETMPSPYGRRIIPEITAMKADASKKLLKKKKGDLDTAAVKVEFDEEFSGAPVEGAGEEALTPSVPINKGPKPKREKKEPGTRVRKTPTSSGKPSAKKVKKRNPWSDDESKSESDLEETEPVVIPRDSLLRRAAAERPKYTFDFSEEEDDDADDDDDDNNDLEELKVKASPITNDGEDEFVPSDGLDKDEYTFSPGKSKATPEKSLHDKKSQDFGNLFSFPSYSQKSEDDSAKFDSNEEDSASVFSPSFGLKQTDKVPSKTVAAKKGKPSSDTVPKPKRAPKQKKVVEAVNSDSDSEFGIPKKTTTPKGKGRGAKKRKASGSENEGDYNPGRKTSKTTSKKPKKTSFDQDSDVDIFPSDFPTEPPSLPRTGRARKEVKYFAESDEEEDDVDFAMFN
SMILES,Kd (ADP/ATP translocase 3),Kd [1],Kd [2],Kd [3],Kd (DNA topoisomerase 2-beta),Kd [4],Kd [5],Kd [6],Kd [7]
COc1cccc2cc(-c3nc([C@H]4CC[C@H](C(=O)O)CC4)n4ncnc(N)c34)[nH]c12 [OSI-027],> 30 µM (inactive),> 30 µM (inactive),> 30 µM (inactive),> 30 µM (inactive),> 30 µM (inactive),1.62 µM,> 30 µM (inactive),> 30 µM (inactive),> 30 µM (inactive)
c1cc(OCCN2CCCCC2)cc(-c2n[nH]c3ccc(-c4nc[nH]n4)cc23)c1 [CC-401],> 30 µM (inactive),> 30 µM (inactive),> 30 µM (inactive),> 30 µM (inactive),> 30 µM (inactive),3.24 µM (active),> 30 µM (inactive),> 30 µM (inactive),> 30 µM (inactive)
O=c1[nH]c([C@@H]2CCCN2)nc2c1oc1ccc(Cl)cc12,> 30 µM (inactive),> 30 µM (inactive),> 30 µM (inactive),> 30 µM (inactive),> 30 µM (inactive),> 30 µM (inactive),> 30 µM (inactive),> 30 µM (inactive),> 30 µM (inactive)
